{"source": "patent US6653354B2", "about": "“NMDA antagonist comprising xenon” (priority 1999, dated 2003)", "key": {"[1]": {"system": "glutamatergic synapses (NMDA receptor slow component, AMPA/KA receptor fast component) of hippocampal neurons", "assay": "Excitatory (glutamatergic) postsynaptic currents, voltage-clamped autaptic hippocampal neurons", "assay_type": "cell-based, rat", "description": "Hippocampal neurons were grown in culture using methods described previously (Segal M M et al, J. Neurophysiol. 1990, 64:1390-1399; Bekkers J M et al, Proc. Natl. Acad. Sci. U.S.A. 1991, 88:7834-7838; Mennerick S et al, J. Neurophysiol. 1995, 73:320-332). Briefly, hippocampi from Sprague Dawley rats (postnatal day 1-3) were dissected, roughly sliced and agitated in a papain-containing solution (20 units ml^−1) for 30 minutes at 37 EC. After washing with enzyme-free solution, the tissue was gently triturated with a fire-polished Pasteur pipette and the cells were plated out at a density of 8-10×10^4 cells ml^−1 and cultured (95% air/5% CO2) at 37° C. Glass coverslips used for culturing the cells were first coated with agarose (0.15% w/v) and then sprayed with a fine mist of poly-D-lysine (PDL) and collagen (0.1 mg ml^−1 PDL and 0.5 mg ml^−1 rat-tail collagen) from a glass micro-atomiser and sterilized by UV exposure. This produced micro-islands of permissive substrate with diameters of between 100 and 1000 μm. At 3-4 days after plating, when the glial cell layer was about 80% confluent, an anti-mitotic agent (cytosine β-D-arabinofuranoside, 5 μM) was added to arrest glial cell proliferation. Neuronal cultures were then allowed to mature for another 4-9 days. We used micro-islands which contained single isolated neurons whose axonal processes and dendritic trees formed multiple self-synapses (autapses). This procedure provided a large population of phenotypically identical monosynaptic connections.\nThe neurons were voltage-clamped using the whole-cell recording technique (Axopatch 200 amplifier, Axon Instruments, Foster City, Calif.). Electrodes were fabricated from borosilicate glass and typically had resistances of between 3-5 MΩ. Series resistance was compensated by 75-90%. Neurons were voltage-clamped at −60 mV, and synaptic responses were stimulated by a 2 ms depolarising pulse to +20 mV. […] For the synaptic measurements, data were sampled at 50 kHz, filtered at 20 kHz (−3 dB, 8-pole Bessel) and stored on a computer. The extracellular recording solution was (mM) 137 NaCl, 5 KCl, 3 CaCl2, 5 HEPES, 10 glucose, 0.001 glycine, 0.0001 strychnine-HCl, titrated to pH 7.3 with NaOH; and the intracellular (pipette) solution was (mM) 140 KCl, 4 NaCl, 0.5 EGTA, 2 MgATP, 10 HEPES, titrated to pH 7.25 with KOH.\nXenon solutions were prepared by first bubbling pure gases (oxygen, nitrogen or xenon) through fine sintered-glass bubblers in 250- or 500-ml Drechsel bottles filled with extracellular recording saline. […] (To minimise oxidization, the neurotoxins and neurotransmitters were excluded from the fully oxygenated saline.) During bubbling, the solutions were continually stirred at room temperature. These solutions were then mixed to achieve the desired final concentrations of the gases. Our control solutions usually contained 80% of the nitrogen solution and 20% of the oxygen solution, while our test solutions usually contained 80% of the xenon solution and 20% of the oxygen solution. Using a Bunsen water/gas partition coefficient of 0.0965 (Smith R A et al, Biochim. Biophys. Acta 1981, 645:327-338) we calculate that our standard test solution contained 3.4 mM xenon. Xenon (research grade, 99.993% pure) was supplied by BOC gases, Guildford, Surrey, UK. In all cases xenon was pre-applied to the neurons for at least 30 seconds before the initiation of synaptic currents.\nIn order to obtain an estimate for the total charge transfer, the EPSCs or IPSCs were numerically integrated."}, "[2]": {"system": "c Fos expression in arcuate nucleus of hypothalamus", "assay": "c Fos expression in arcuate nucleus after NMA (inhibition of synaptic plasticity in vivo)", "set-up": "species or system Sprague Dawley female adult rats", "conditions": "MK801 0.5 mg/kg s.c. + NMA 100 mg/kg s.c.", "description": "With exposure to NMA neuronal activation is enhanced (E vs A) which is indicative of synaptic plasticity. In the presence of both Xenon (D) and MK 801 (B), synaptic plasticity induced by NMA is inhibited. […] This is sometimes referred to as long term potentiation, an example of synaptic plasticity. […] The attenuation of c Fos expression is a reflection of the inhibition of synaptic plasticity."}, "[3]": {"system": "neurons of arcuate nucleus of hypothalamus", "assay": "NMA-induced neuron injury in the arcuate nucleus (neuroprotection in vivo)", "set-up": "species or system Sprague Dawley female adult rats", "conditions": "MK801 0.5 mg/kg s.c. + NMA 100 mg/kg s.c.", "description": "It can be seen that NMA caused neuronal degeneration and vacuoulated swelling in the neuropil giving a spongiform appearance in the arcuate nucleus (E). The degenerated neuron has a pyknotic nucleus, which look like “bulls' eyes” because of oedematous swelling of the cytoplasmic compartment.\nRats were injected with NMA (100 mg/kg) sc and sacrificed 4 hours later after exposure to air (“NMA”; n=7) or xenon 75% (“75% xenon+NMA”; n=8). (For comparison the effect of MK801, the NMDA antagonist, is also shown). The arcuate nucleus was removed and sectioned and stained with cresyl violet. Control animals (“PS”; n=6) had neither NMA nor xenon administered. Data are reflected as either the mean of three sections/animal (upper) or the sum (lower) of degenerated neurons in both arcuate nuclei."}, "NMDA receptors": {"system": "NMDA receptors", "assay_type": "cell-based, rat", "conditions": "neurons clamped at −60 mV"}, "[4]": {"system": "adenylyl cyclase (AC) / alpha-2 adrenergic receptors", "assay": "Adenylyl cyclase activity in neuroblastoma X glioma hybrid cell line (synaptic plasticity paradigm)", "assay_type": "cell-based", "description": "Perturbation of function in the central nervous system can be produced by a change in the strength of neural connections, which is referred to as synaptic plasticity. The present inventors have used the neuroblastoma X glioma hybrid cell line to examine the effect of xenon on synaptic plasticity. In this paradigm the alpha-2 adrenergic receptors, which are pivotally involved in synaptic transmission, inhibit adenylyl cyclase (AC).\nTo examine the inhibitory effect of alpha-2 adrenergic receptors on AC it is first necessary to stimulate the endogenous AC with Prostaglandin E1 (PGE1).\nTo induce “synaptic plasticity” cells are pretreated for 8 hours with norepinephrine; after preparing homogenates from thoroughly washed cells, re-applied norepinephrine loses its inhibitory effect on PGE1-stimulated AC activity."}, "[5]": {"conditions": "excitatory currents + 200 μM AP5"}}, "data": [{"smiles": "NC(CCCP(=O)(O)O)C(=O)O", "note": "(racemic) [AP5, DL-2-amino-5-phosphononpentanoate, reference compound]", "values": [{"measurement": "reduction in total charge transfer", "setting": "[1]; 200 μM AP5", "value": 75, "unit": "%"}, {"measurement": "Decay half-time % change (means ± SEM)", "setting": "[1]; [5]", "value": "−24.1 ± 3.3", "unit": "%"}, {"measurement": "Ifast % change (means ± SEM)", "setting": "[1]; [5]", "value": "6.8 ± 6.2", "unit": "%"}, {"measurement": "Ipeak % change (means ± SEM)", "setting": "[1]; [5]", "value": "−16.3 ± 2.1", "unit": "%"}, {"measurement": "Islow % change (means ± SEM)", "setting": "[1]; [5]", "value": "−98.8 ± 0.8", "unit": "%"}, {"measurement": "Qfast % change (means ± SEM)", "setting": "[1]; [5]", "value": "5.3 ± 9.6", "unit": "%"}, {"measurement": "Qslow % change (means ± SEM)", "setting": "[1]; [5]", "value": "−96.0 ± 3.4", "unit": "%"}, {"measurement": "Total charge transfer % change (means ± SEM)", "setting": "[1]; [5]", "value": "−75.2 ± 2.5", "unit": "%"}, {"measurement": "τfast % change (means ± SEM)", "setting": "[1]; [5]", "value": "−5.9 ± 2.3", "unit": "%"}]}, {"smiles": "C[C@]12N[C@H](Cc3ccccc31)c1ccccc12", "note": "[MK801, reference compound]", "values": [{"measurement": "synaptic plasticity induced by NMA (c Fos expression)", "setting": "[2]", "value": "is inhibited"}, {"measurement": "NMA-induced neuronal injury (cresyl fast violet histology)", "setting": "[3]", "value": "prevented NMA-induced injury"}]}, {"smiles": "CN[C@H](CC(=O)O)C(=O)O", "note": "[NMDA, N-methyl-D-aspartate]", "values": [{"measurement": "Hill coefficient", "setting": "NMDA receptors", "value": "1.2±0.1"}, {"measurement": "EC50", "setting": "NMDA receptors; read-out: EC50 for activation of inward current", "value": "24 ± 2", "unit": "µM"}]}, {"smiles": "CCCCC[C@H](O)/C=C/[C@H]1[C@H](O)CC(=O)[C@@H]1CCCCCCC(=O)O", "note": "[PGE1, Prostaglandin E1]", "values": [{"measurement": "effect on adenylyl cyclase (AC) activity", "setting": "[4]; increasing doses of PGE1", "value": "dose-dependently stimulates"}]}, {"smiles": "NC[C@H](O)c1ccc(O)c(O)c1", "note": "[norepinephrine]", "values": [{"measurement": "effect on PGE1-stimulated AC activity", "setting": "[4]; norepinephrine coadministered with PGE1", "value": "dose-dependently inhibited"}]}]}
